# Measured values: patent publication US4820690A (G. D. Searle & Co., priority 1984, dated 1989)
# Tests used:
# [1] = test system: cysteamine induced duodenal ulcers; assay: Healing of cysteamine-induced perforating duodenal ulcers, therapy in drinking water for 50 days (Example 1); assay type: in vivo; details: rats, 50 days therapy from day 7 after cysteamine, urogastrone 6 μg./rat/day, cimetidine 100 mg./rat/day; for Healed (number of healed ulcers) / Unhealed (number of unhealed ulcers): n 15
# Procedure: Rats with perforating duodenal ulcers confirmed by laparotomy were selected from a large number and given two doses of cysteamine as described in the following protocol. These animals were randomly assigned to treatment groups of 15 rats each. The protocol utilises 2 doses of cysteamine (300 mg./kg. and 150 mg./kg., 6 hours apart). This procedure produces deep perforating duodenal ulcers in a majority of the rats injected. The "chronic" ulcers heal extremely slowly. Previous studies have shown that after 50 days only 20% have healed as judged by reepithelialization of the surface. Even after 200 days, 36% remain unhealed. In order to provide for a reliable experimental protocol, rats given 2 doses of cysteamine are subjected to an intra-abdominal inspection by laparotomy 5 days after induction. Only those rats in which perforation of the ulcer to the duodenal external serosal surface has occurred are included in the experimental groups. Rats with non-perforating ulcers are discarded. Therapy by drug or placebo then begins on day 7 post-induction.On termination after a standardised period of (21 to 50 days) therapy the duodenum is removed from all rats, fixed and stained with PAS and the number of healed and unhealed ulcers determined by macroscopic examination of the mucosal surface with a stereomicroscope. Healing is defined as restoration of complete mucosal integrity by reepithelialisation of the surface. This is confirmed by subsequent histology. In this example, therapy commenced on day 7 following cysteamine and continued for 50 days.
# [2] = test system: gastric acid secretion; details: administered intravenously to animals; cited from earlier work
# [3] = test system: gastrointestinal mucosa; details: administered concurrently with or prior to the injurious stimuli; cited from earlier work
# [4] = test system: cysteamine induced duodenal ulcers; assay: Healing of cysteamine-induced duodenal ulcers, therapy by oral gavage for 21 days, assessed blind by 2 observers (Example 2); assay type: in vivo; details: rats, 10 μg./rat/dose by oral gavage three times a day
# Procedure: The protocol utilises 2 doses of cysteamine (300 mg./kg. and 150 mg./kg., 6 hours apart).
# In order to provide for a reliable experimental protocol, rats given 2 doses of cysteamine are subjected to an intra-abdominal inspection by laparotomy 5 days after induction. Only those rats in which perforation of the ulcer to the duodenal external serosal surface has occurred are included in the experimental groups. Rats with non-perforating ulcers are discarded. Therapy by drug or placebo then begins on day 7 post-induction.On termination after a standardised period of (21 to 50 days) therapy the duodenum is removed from all rats, fixed and stained with PAS and the number of healed and unhealed ulcers determined by macroscopic examination of the mucosal surface with a stereomicroscope. Healing is defined as restoration of complete mucosal integrity by reepithelialisation of the surface.
# In this Example the same protocol was followed as in Example 1 but therapy was continued for only 21 days after commencing on day 7 following ulcer induction.
# [5] = test system: acid secretion in the stomach; details: administered by a systemic route; cited from earlier work
# [6] = test system: gastric acid secretion; assay: Histamine stimulated acid secretion in beagle dogs with Heidenhain pouches (Example 3); assay type: in vivo, dog; details: Heidenhain pouch dogs; for effect on acid secretion, intravenous administration: intravenously administered
# Procedure: Male beagle dogs (14-22 kg.) were prepared with isolated Heidenhain (vagal denervated) pouches derived from the fundic area of the stomach by the method of Rudick et al, J. Surg. Res. 7: 383, 1967. Animals were allowed 4-6 weeks to recover from surgery and given a 2-3 month training period to standardise laboratory behaviour and secretory responses. The dogs were fasted for 23 hours prior to use, the pouch then flushed with warm water and histamine infused subcutaneously at a rate of 10 μg./min. Pouch secretions were collected every 15 minutes, their volume measured and aliquots titrated to pH 7.0 with 100 mM NaOH.
# [7] = test system: gastrointestinal epithelial proliferation; assay: Crypt cell production rate of gastrointestinal epithelium in rats on total parenteral nutrition (Example 4); assay type: in vivo, rat; details: intragastric infusion of similar or much larger doses than i.v.
# Procedure: These animals have permanent indwelling i.v. catheters connected to infusion pumps via 360° swivel joints which allow normal mobility of the rats within their cages. A complete parenteral food mixture is infused through the catheters at a rate of 60 ml./rat/24 h. The animals are allowed water in the normal way but no food by mouth.
# Epithelial cell turnover in these experiments was determined as the crypt cell production rate (CCPR) at each site examined. CCPR was defined as the number of new cells produced per mucosal crypt per hour (for method of determination see Al Nafussi and Wright, Virch. Arch. Cell Pathol. 40: 63, 1982).
# Infusion was continued for 10 days.
Compound,Percentage Rate (healed) [1],Healed (number of healed ulcers) [1],Unhealed (number of unhealed ulcers) [1],"activity in inhibiting acid secretion, beta- versus gamma-urogastrone [2]",protection of the gastrointestinal mucosa against damaging stimuli and ulcer formation [3],"effect on acid secretion, intravenous administration [6]",also measured
"CN/C(=N/CCSCc1nc[nH]c1C)NC#N [Cimetidine, reference compound]",40%,6,9,–,–,–,–
"Urogastrone: active form of human urogastrone, polypeptide hormone of 53 amino acids; recombinant derived, produced by microbial methods",43%,6,8,equal activity,protect the gastrointestinal mucosa,inhibited acid secretion,"Percentage healed, observer (1) [4]: 36%; Percentage healed, observer (2) [4]: 23%; Healed, observer (1) ([4]; n 22): 8; Unhealed, observer (1) ([4]; n 22): 14; Unhealed, observer (2) ([4]; n 22): 17; inhibition of acid secretion in the stomach of humans [5]: inhibit acid secretion; time to peak inhibition of the acid secretion response to histamine ([6]; after intravenous bolus injection): ≤ 30 min; dose required to produce a 50% inhibition of acid secretion ([6]; intravenous bolus dose, histamine 10 μg./min s.c., from log-linear dose response regression plots): 0.27 µg/kg; effect on acid secretion, oral administration ([6]; single oral solution dose, even at 4 mg. (approximately 200 μg./kg.)): no effect on acid secretion; effect on gastrointestinal epithelial proliferation, intragastric infusion [7]: no effect"
"gamma-urogastrone: 52 amino acid form that differs from beta-urogastrone only in lacking the carboxy-terminal arginine residue (NSDSECPLSHDGYCLHDGVCMYIEALDKYACNCVVGYIGERCQYRDLKWWEL; Epidermal growth factor; UniProt P01133 971-1022, looked up, fragment)",–,–,–,equal activity,–,–,–
"mEGF: epidermal growth factor from mouse salivary glands, polypeptide of 53 amino acids resembling beta-urogastrone (NSYPGCPSSYDGYCLNGGVCMHIESLDSYTCNCVIGYSGDRCQTRDLRWWELR; Epidermal growth factor; UniProt P01132 977-1029, looked up) [reference compound]",–,–,–,–,protect the gastrointestinal mucosa,inhibited acid secretion,–
